One may read the IC50 as the midpoint of a concentration-inhibition curve.

Read-outs that look alike come from different tables or passages of the source. Where a SMILES comes first, the peptide text is derived from it. Bridges are numbered along the chain shown (N, C = ends). [ ]: non-standard residue; d: D form. Nle = CCCC[C@H](N)C(=O)O; Abu = CC[C@H](N)C(=O)O

In one series the test system is HELA cells (Acc57). The series is described as follows: Cytotoxicity assay (MTT reduction), HELA cells. The format is cell-based. The method, then: The cytotoxicity of the peptides to HELA cells (Acc57) and COS-7 cells (CRL-1651) was determined using the MTT reduction assay [see ref. 2 and 3, below]. Briefly the method was as follows: HELA cells and COS-7 cells were seeded at 7.0×10^3 and, respectively, 4.5×10^3 cells per well and grown in 96-well microtiter plates for 24 hours at 37° C. at 5% CO2. At this point, time zero (Tz) was determined by MTT reduction (see below). The supernatant of the remaining wells was discarded, and fresh medium and the peptides in serial dilutions of 12.5, 25 and 50 μM were pipetted into the wells. Each peptide concentration was assayed in triplicate. Incubation of the cells was continued for 48 hours at 37° C. at 5% CO2. Wells were then washed once with phosphate buffered saline (PBS) and subsequently 100 μl MTT reagent (0.5 mg/ml in medium RPMI1640 and, respectively, DMEM) were added to the wells. This was incubated at 37° C. for 2 hours and subsequently the medium was aspirated and 100 μl isopropanol were added to each well. The absorbance at 595 nm of the solubilized product was measured (OD595peptide). For each concentration averages were calculated from triplicates. The percentage of growth was calculated as follows: (OD595peptide-OD595Tz-OD595Empty well)/(OD595Tz-OD595Empty well)×100% and was plotted for each peptide concentration.
The LC 50 values (Lethal Concentration, defined as the concentration that kills 50% of the cells) were determined for each peptide by using the trend line function of EXCEL (Microsoft Office 2000) for the concentrations (50, 25, 12.5 and 0 μM), the corresponding growth percentages and the value −50, (=TREND(C50:C0,%50:%0,−50)).
The GI 50 (Growth Inhibition) concentrations were calculated for each peptide by using a trend line function for the concentrations (50, 25, 12.5 and 0 μg/ml), the corresponding percentages and the value 50, (=TREND (C50:C0,%50:%0,50).

Series [1] has as its system Tryptase, from human lung. Kind of series: Enzymatic assay, tryptase. To be noted: at 100 μM.
The target of series [2] is Chymotrypsin, from human pancreas (Homo sapiens, UniProt P17538). The series is described as follows: Enzymatic assay, chymotrypsin.
Series [3] has as its target T1, Elastase from human neutrophils (Homo sapiens, UniProt P08246).
T1 sequence (P08246 30-267): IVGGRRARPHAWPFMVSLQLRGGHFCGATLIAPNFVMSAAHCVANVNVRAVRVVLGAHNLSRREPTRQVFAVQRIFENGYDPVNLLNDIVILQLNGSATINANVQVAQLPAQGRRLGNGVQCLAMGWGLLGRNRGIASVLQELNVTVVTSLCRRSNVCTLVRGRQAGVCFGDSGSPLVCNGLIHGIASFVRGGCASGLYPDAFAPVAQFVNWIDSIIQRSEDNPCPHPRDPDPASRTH
Kind of series: Enzymatic assay, elastase.

Sequence of Chymotrypsin, from human pancreas (P17538 19-263): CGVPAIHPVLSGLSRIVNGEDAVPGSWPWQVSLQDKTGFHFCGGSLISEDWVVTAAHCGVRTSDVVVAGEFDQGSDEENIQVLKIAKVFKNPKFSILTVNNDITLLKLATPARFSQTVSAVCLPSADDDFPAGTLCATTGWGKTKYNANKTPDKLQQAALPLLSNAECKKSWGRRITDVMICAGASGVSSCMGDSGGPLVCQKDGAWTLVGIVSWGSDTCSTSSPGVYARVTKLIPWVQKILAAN

With `CC[C@H](C)[C@@H]1NC(=O)[C@@H]2CCCN2C(=O)[C@@H]2CCCN2C(=O)[C@H](CC(=O)O)NC(=O)[C@H]([C@H](C)O)NC(=O)[C@H](CCCCN)NC(=O)[C@H]([C@@H](C)O)NC(=O)[C@@H]2CSSC[C@H](NC1=O)C(=O)N[C@@H](CO)C(=O)N1CCC[C@@H]1C(=O)N1CCC[C@H]1C(=O)N[C@@H](Cc1ccccc1)C(=O)N2` [Ex. 24] (HELM PEPTIDE1{F.C.T.K.[C[C@H](O)[C@H](N[*:1])C(=O)[*:2]].D.P.P.I.C.S.[dP].P}$PEPTIDE1,PEPTIDE1,2:R3-10:R3|PEPTIDE1,PEPTIDE1,1:R1-13:R2$$$V2.0), in the series on HELA cells (Acc57) (Hela cells), the Cytotoxicity LC50/GI50 Hela cells is 99 µM. Moreover, in series [1], the “Tryptase at 100 μM %” value is 0%.
As for `CCCCCC[C@@H]1NC(=O)[C@H](CO)NC(=O)[C@H](C)NC(=O)[C@H]([C@@H](C)O)NC(=O)[C@@H]2CSSC[C@H](NC(=O)[C@H](CCC(N)=O)NC(=O)[C@@H]3CCCN3C(=O)[C@@H]3CCCN3C1=O)C(=O)N[C@@H](Cc1ccc(O)cc1)C(=O)N1CCC[C@@H]1C(=O)N1CCC[C@H]1C(=O)N[C@@H](CCCC)C(=O)N2` [Ex. 80] (HELM PEPTIDE1{[Nle].C.T.A.S.[CCCCCC[C@H](N[*:1])C(=O)[*:2]].P.P.Q.C.Y.[dP].P}$PEPTIDE1,PEPTIDE1,2:R3-10:R3|PEPTIDE1,PEPTIDE1,1:R1-13:R2$$$V2.0), the figures for the half-inhibitory concentration (IC50) in series [2] and in series [3] (Elastase IC50) were greater than 20 µM and 0.035 µM, respectively. This compound returned a Cytotoxicity LC50/GI50 Hela cells with HELA cells (Acc57) (Hela cells) of 12 µM.
For `CCCC[C@@H]1NC(=O)[C@@H]2CCCN2C(=O)[C@H]2CCCN2C(=O)[C@H](Cc2ccc(O)cc2)NC(=O)[C@@H]2CSSC[C@H](NC1=O)C(=O)N[C@@H]([C@@H](C)O)C(=O)N[C@@H](C)C(=O)N[C@@H](CO)C(=O)N[C@@H](CCC(C)C)C(=O)N1CCC[C@H]1C(=O)N1CCC[C@H]1C(=O)N[C@@H](CCC(N)=O)C(=O)N2` [Ex. 83] (HELM PEPTIDE1{[Nle].C.T.A.S.[CC(C)CC[C@H](N[*:1])C(=O)[*:2]].P.P.Q.C.Y.[dP].P}$PEPTIDE1,PEPTIDE1,2:R3-10:R3|PEPTIDE1,PEPTIDE1,1:R1-13:R2$$$V2.0) the same measures were 100 µM, 0.043 µM and 12 µM.
As for `CCCC[C@@H]1NC(=O)[C@@H]2CCCN2C(=O)[C@H]2CCCN2C(=O)[C@H](CO)NC(=O)[C@@H]2CSSC[C@H](NC1=O)C(=O)N[C@@H]([C@@H](C)O)C(=O)N[C@@H](C)C(=O)N[C@@H](CO)C(=O)N[C@@H]([C@@H](C)CC)C(=O)N1CCC[C@H]1C(=O)N1CCC[C@H]1C(=O)N[C@@H](CCC(N)=O)C(=O)N2` [Ex. 93] (HELM PEPTIDE1{[Nle].C.T.A.S.I.P.P.Q.C.S.[dP].P}$PEPTIDE1,PEPTIDE1,2:R3-10:R3|PEPTIDE1,PEPTIDE1,1:R1-13:R2$$$V2.0), the IC50 in series [3] (Elastase IC50) was determined as 0.041 µM. Moreover, the Cytotoxicity LC50/GI50 Hela cells with HELA cells (Acc57) (Hela cells) amounted to 100 µM. Further, in series [1], the “Tryptase at 100 μM %” value is recorded as 5.6%.
In series [3] (Elastase IC50), `CC[C@H](C)[C@@H]1NC(=O)[C@@H]2CCCN2C(=O)[C@H]2CCCN2C(=O)[C@H](Cc2ccc(O)cc2)NC(=O)[C@@H]2CSSC[C@H](NC1=O)C(=O)N[C@@H]([C@@H](C)O)C(=O)N[C@@H](C)C(=O)N[C@@H](CO)C(=O)N[C@@H](CC(C)C)C(=O)N1CCC[C@H]1C(=O)N1CCC[C@H]1C(=O)N[C@@H](Cc1ccc(O)cc1)C(=O)N2` [Ex. 114] (HELM PEPTIDE1{I.C.T.A.S.L.P.P.Y.C.Y.[dP].P}$PEPTIDE1,PEPTIDE1,2:R3-10:R3|PEPTIDE1,PEPTIDE1,1:R1-13:R2$$$V2.0) had an IC50 of 0.047 µM. In addition, the Cytotoxicity LC50/GI50 Hela cells in the series with HELA cells (Acc57) (Hela cells) came out at 34 µM.
Take `CCCC[C@@H]1NC(=O)[C@@H]2CCCN2C(=O)[C@@H](CC(=O)O)NC(=O)[C@H](Cc2ccc(O)cc2)NC(=O)[C@@H]2CSSC[C@H](NC1=O)C(=O)N[C@@H]([C@@H](C)O)C(=O)N[C@@H](C)C(=O)N[C@@H](CO)C(=O)N[C@@H]([C@@H](C)CC)C(=O)N1CCC[C@H]1C(=O)N1CCC[C@H]1C(=O)N[C@@H](CCC(N)=O)C(=O)N2` [Ex. 115] (HELM PEPTIDE1{[Nle].C.T.A.S.I.P.P.Q.C.Y.[dD].P}$PEPTIDE1,PEPTIDE1,2:R3-10:R3|PEPTIDE1,PEPTIDE1,1:R1-13:R2$$$V2.0): the IC50 in series [2] stood at 27.8 µM; in series [3] (Elastase IC50), 0.038 µM. The same compound showed a Cytotoxicity LC50/GI50 Hela cells with HELA cells (Acc57) (Hela cells) of 51 µM.
With `CCCC[C@@H]1NC(=O)[C@@H]2CCCN2C(=O)[C@@H](CCCNC(=N)N)NC(=O)[C@H](Cc2ccc(O)cc2)NC(=O)[C@@H]2CSSC[C@H](NC1=O)C(=O)N[C@@H]([C@@H](C)O)C(=O)N[C@@H](C)C(=O)N[C@@H](CO)C(=O)N[C@@H]([C@@H](C)CC)C(=O)N1CCC[C@H]1C(=O)N1CCC[C@H]1C(=O)N[C@@H](CCC(N)=O)C(=O)N2` [Ex. 117] (HELM PEPTIDE1{A.S.I.P.P.Q.C.Y.[dR].P.[Nle].C.T}$PEPTIDE1,PEPTIDE1,7:R3-12:R3|PEPTIDE1,PEPTIDE1,1:R1-13:R2$$$V2.0), the IC50 in series [3] (Elastase IC50) amounted to 0.033 µM. This compound displayed a Cytotoxicity LC50/GI50 Hela cells in the series on HELA cells (Acc57) (Hela cells) of 29 µM.
In the same order, the values of `CCCC[C@@H]1NC(=O)[C@@H]2CCCN2C(=O)[C@H]2CCCCN2C(=O)[C@H](Cc2ccc(O)cc2)NC(=O)[C@@H]2CSSC[C@H](NC1=O)C(=O)N[C@@H]([C@@H](C)O)C(=O)N[C@@H](C)C(=O)N[C@@H](CO)C(=O)N[C@@H]([C@@H](C)CC)C(=O)N1CCC[C@H]1C(=O)N1CCC[C@H]1C(=O)N[C@@H](CCC(N)=O)C(=O)N2` [Ex. 120] (HELM PEPTIDE1{A.S.I.P.P.Q.C.Y.[O=C([C@H]1CCCCN1[*:1])[*:2]].P.[Nle].C.T}$PEPTIDE1,PEPTIDE1,7:R3-12:R3|PEPTIDE1,PEPTIDE1,1:R1-13:R2$$$V2.0) are 0.029 µM and 38 µM.
In the same order, the values of `CCCC[C@@H]1NC(=O)[C@H](CO)NC(=O)[C@H]2CCCN2C(=O)[C@H](Cc2ccc(O)cc2)NC(=O)[C@@H]2CSSC[C@H](NC1=O)C(=O)N[C@@H]([C@@H](C)O)C(=O)N[C@@H](C)C(=O)N[C@@H](CO)C(=O)N[C@@H]([C@@H](C)CC)C(=O)N1CCC[C@H]1C(=O)N1CCC[C@H]1C(=O)N[C@@H](CCC(N)=O)C(=O)N2` [Ex. 124] (HELM PEPTIDE1{A.S.I.P.P.Q.C.Y.[dP].S.[Nle].C.T}$PEPTIDE1,PEPTIDE1,7:R3-12:R3|PEPTIDE1,PEPTIDE1,1:R1-13:R2$$$V2.0) are 0.04 µM and 40 µM.
As to “Ex. 87: β-hairpin peptidomimetic of Table 1, template DPro-Pro (cyclo([Nle]C[Abu]ASIPPQCY); disulfide 2-10; also: DPro-Pro template, linkage not given here)”, the IC50 in series [2] (read-out: Chymotrypsin IC50) was found to be 107 µM; in series [3] (read-out: Elastase IC50), 0.037 µM. For the same compound, the Cytotoxicity LC50/GI50 Hela cells with HELA cells (Acc57) stood at 65 µM.

The record behind these values is patent publication US8658604B2, “Template-fixed beta-hairpin peptidomimetics with protease inhibitory activity” (Polyphor Ltd, priority 2005, dated 2014).
